These results are taken from patent US10854312B2, “Selective peptide antagonists” (BIONIZ, LLC, priority 2013, dated 2020).

“Also recorded” adds a separate entry of the source. No end group written: not given here.

What all share (assay type): cell-based
In one assay the test system is mouse IL-9. Kind of assay: PT-18 proliferation assay (WST-1), IL-9. Particulars: murine PT-18 cells, 1 nM mouse IL-9, BNZ132-1 50 nM, 500 nM, 5 μM. On the procedure:
(§1) FIG. 6A-FIG. 6E presents inhibitory spectrum of BNZ132-1 over γc- and non-γc-cytokines. […] Neutralizing antibodies against each cytokine (R & D systems, 5 μg ml^−1) were included as controls. After 20 h, the cells were pulsed with WST-1 (Clontech) and OD450 of each well was measured after 6 h. A 19-mer scrambled peptide was used as a negative control at 5 μM. The experiments were conducted in triplicate (applies to all experiments in FIG. 6A-FIG. 6E). The result represents one of at least three independent experiments (applies to all experiments in FIG. 6A-FIG. 6E). […] In PT-18 proliferation assay, PT-18β or PT-18h21Rα cells were withdrawn of mouse IL-3 for 12 h before the experiment. Cells were then incubated with 1 nM of mouse IL-4, mouse IL-9, or mouse IL-21 in the presence or absence of the indicated doses (μM) of BNZ132-1. Neutralizing antibodies to each cytokine (5 μg ml^−1, except for anti-mouse IL-21 polyclonal antibody which was used at 15 μg ml−1) and a scrambled control peptide (5 μM) were included as negative controls. WST-1 assay was conducted as described above. […] In PT-18 h21Rα survival assay, PT-18h21Rα cells are described in the text. […] Both parental and hIL-21Rα positive PT-18 cells were washed and incubated without IL-3 for 12 h before the assay. […] The Y-axis represents the cpm (count per minute) values measured by a β-counter. […]
For orientation: Tetrazolium dyes change colour on reduction, which living cells bring about.

In another assay the test system is human IL-21. Briefly: PT-18 h21Rα survival assay (apoptosis by Annexin V staining), IL-21. Particulars: hIL-21Rα-transfected PT-18 cells, 1 nM human IL-21, 5 μM BNZ132-1, PE-Annexin V flow cytometry. On the procedure: as §1
(In flow cytometry, cells or beads pass a laser one at a time.)

The next assay concerns the target mouse stem cell factor (Mus musculus, UniProt P20826). Kind of assay: PT-18β proliferation assay (3H-thymidine), non-γc cytokine SCF. The following applies: 1 nM mouse stem cell factor, 15 μM BNZ132-1.
A further assay relates to human IL-2 signal. Kind of assay: Western blot of phosphorylation downstream of IL-2 in human PBMC / peripheral T cells. On the procedure: FIG. 9C presents IL-2 signal in human PBMC was blocked by BNZ132-1. Human PBMCs were prepared (Ficoll-paque), activated (by PHA) expanded (by IL-2), and purified by magnetic negative selection as described in the methodology section. After 24 h of IL-2 depletion, the PBMCs were stimulated by 1 nM IL-2 in the presence or absence of BNZ132-1 (0.5 or 0.1 μM) for 20 min before the cellular protein extraction. Phosphorylation of individual proteins was visualized by phosphor-specific antibodies (Cell Signaling), followed by ECL. Lanes: 1. no stimulation, 2. IL-2 stimulation, 3. IL-2+BNZ132-1 (high dose), 4. IL-2+BNZ132-1 (low dose). In all blots, anti-Vinculin antibody (Sigma) was used to validate nearly-equal protein loading.

Sequence of mouse stem cell factor (P20826 26-273): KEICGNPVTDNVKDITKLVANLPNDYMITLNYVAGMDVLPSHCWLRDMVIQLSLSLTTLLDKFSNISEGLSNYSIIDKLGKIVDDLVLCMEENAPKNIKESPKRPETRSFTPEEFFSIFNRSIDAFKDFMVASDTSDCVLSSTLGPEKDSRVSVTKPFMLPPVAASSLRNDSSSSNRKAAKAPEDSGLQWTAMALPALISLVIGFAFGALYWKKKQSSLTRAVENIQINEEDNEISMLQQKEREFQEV

On to IKEFLQRFIHIVQSIINTS [BNZ132-1], for which, in the assay on mouse IL-9, the “inhibition of IL-9-induced proliferation of PT-18 cells” value is reported as “partially inhibited; also recorded: inhibition of IL-9”. Besides, the “inhibition of IL-21-mediated protection from apoptotic death after IL-3 withdrawal” value in the assay with human IL-21 is recorded as “did not counteract the effect of IL-21; also recorded: not inhibited; also recorded: no inhibition of IL-21”. Moreover, on mouse stem cell factor, the “inhibition of SCF-induced proliferation of PT-18β cells” value is listed as “did not inhibit; also recorded: no inhibition; also recorded: no inhibition of non-γc cytokines”. Also, the “inhibition of IL-2 signal (phosphorylation)” value with human IL-2 signal (human PBMC/peripheral T cells, 1 nM IL-2, BNZ132-1 0.5 or 0.1 μM, 20 min) is recorded as “comprehensively inhibited; also recorded: blocked”. In the assay with human IL-2 signal (low dose BNZ132-1 (0.1 μM), IL-2, human peripheral T cells), the “differential inhibition of individual signaling pathways at suboptimal dose” value was “Akt and p38 are more sensitive than Jak3 and STAT5”.
